tested on: NMDA-induced tonic convulsion; experiment: Inhibition of NMDA-induced tonic convulsion in mice; type: in vivo; details: Mus musculus, ip, 0.5 h, i.p., 30 minutes before NMDA injected intracerebroventicularly, read-out: Inhibition potency of NMDA-induced tonic convulsion (ED50; mg/kg, i.p.)
Experimental: A test compound was injected intraperitoneally in mice. After 30 minutes from the administration, NMDA was injected intracerebroventicularly, and it was observed whether there was a tonic convulsion. ED₅₀ (mg/kg, i.p.) was calculated out from the inhibition rates.

SMILES	ED50 [mg/kg]
c1cnc2c(NCCNCCNc3cccc4cccnc34)cccc2c1 [Example 1]	16.4
c1ccc2c(NCCNCCNc3cccc4ccccc34)cccc2c1 [Example 2]	> 30
c1cc2c(c(NCCNCCNc3cccc4c3CCCC4)c1)CCCC2 [Example 3]	> 30
c1ccc2c(NCCCNCCNc3cccc4ccccc34)cccc2c1 [Example 4]	> 30
Clc1ccc(NCCNCCNc2ccc(Cl)c3ccccc23)c2ccccc12 [Example 5]	24.8
